Publication PMC6677754, “In silico design and optimization of selective membranolytic anticancer peptides” (Scientific Reports, 2019)
Peptide text beside a SMILES is read from it.

Legend:
Test in all cases: NCI-60 screening
Assay type in all cases: cell-based, human
M14 = M14 (Melanoma); log GI50; 48 h, sulforhodamine B, 10^-4 to 10^-8 M
Protocol: (§1) NCI-60 screening procedure
(§2) The NCI-60 screening procedure was performed by the Developmental Therapeutics Program of the National Cancer Institute. The procedure was performed as previously described24 in 96-well microtiter plates. Each peptide was tested in a 5-concentration assay, starting at 10^-4 M and diluting 10-fold to the lowest 10^-8 M concentration. The peptides were incubated for 48 h and the cell concentration was assayed by using the sulforhodamine B assay25 and optical density measurements. The growth inhibition (GI50) value24, measures the growth inhibitory power of the drug agent. The GI50 value is the concentration of the test drug for which the condition in Eq. S1 is met, where T is the optical density of the test well after a 48-h exposure to the peptide, T0 the optical density before applying the peptide drug and C the control optical density of a well where no peptide was applied.

NCI-H522 = NCI-H522 (Lung); log GI50; 48 h, sulforhodamine B, 10^-4 to 10^-8 M
Protocol: as §1, §2

CAKI-1 = CAKI-1 (Renal); log GI50; 48 h, sulforhodamine B, 10^-4 to 10^-8 M
Protocol: as §1, §2

SF-539 = SF-539 (CNS); log GI50; 48 h, sulforhodamine B, 10^-4 to 10^-8 M
Protocol: as §1, §2

COLO 205 = COLO 205 (Colon); log GI50; 48 h, sulforhodamine B, 10^-4 to 10^-8 M
Protocol: as §1, §2

SR = SR (Leukemia); log GI50; 48 h, sulforhodamine B, 10^-4 to 10^-8 M
Protocol: as §1, §2

SF-295 = SF-295 (CNS); log GI50; 48 h, sulforhodamine B, 10^-4 to 10^-8 M
Protocol: as §1, §2

SNB-75 = SNB-75 (CNS); log GI50; 48 h, sulforhodamine B, 10^-4 to 10^-8 M
Protocol: as §1, §2

RPMI-8226 = RPMI-8226 (Leukemia); log GI50; 48 h, sulforhodamine B, 10^-4 to 10^-8 M
Protocol: as §1, §2

NCI-H322M = NCI-H322M (Lung); log GI50; 48 h, sulforhodamine B, 10^-4 to 10^-8 M
Protocol: as §1, §2

HOP-62 = HOP-62 (Lung); log GI50; 48 h, sulforhodamine B, 10^-4 to 10^-8 M
Protocol: as §1, §2

HOP-92 = HOP-92 (Lung); log GI50; 48 h, sulforhodamine B, 10^-4 to 10^-8 M
Protocol: as §1, §2

NCI-H460 = NCI-H460 (Lung); log GI50; 48 h, sulforhodamine B, 10^-4 to 10^-8 M
Protocol: as §1, §2

HCT-15 = HCT-15 (Colon); log GI50; 48 h, sulforhodamine B, 10^-4 to 10^-8 M
Protocol: as §1, §2

OVCAR-4 = OVCAR-4 (Ovarian); log GI50; 48 h, sulforhodamine B, 10^-4 to 10^-8 M
Protocol: as §1, §2

HCC-2998 = HCC-2998 (Colon); log GI50; 48 h, sulforhodamine B, 10^-4 to 10^-8 M
Protocol: as §1, §2

SW-620 = SW-620 (Colon); log GI50; 48 h, sulforhodamine B, 10^-4 to 10^-8 M
Protocol: as §1, §2

MCF7 = MCF7 (Breast); log GI50; 48 h, sulforhodamine B, 10^-4 to 10^-8 M
Protocol: as §1, §2

LOX IMVI = LOX IMVI (Melanoma); log GI50; 48 h, sulforhodamine B, 10^-4 to 10^-8 M
Protocol: as §1, §2

MOLT-4 = MOLT-4 (Leukemia); log GI50; 48 h, sulforhodamine B, 10^-4 to 10^-8 M
Protocol: as §1, §2

MDA-MB-435 = MDA-MB-435 (Melanoma); log GI50; 48 h, sulforhodamine B, 10^-4 to 10^-8 M
Protocol: as §1, §2

HT29 = HT29 (Colon); log GI50; 48 h, sulforhodamine B, 10^-4 to 10^-8 M
Protocol: as §1, §2

K-562 = K-562 (Leukemia); log GI50; 48 h, sulforhodamine B, 10^-4 to 10^-8 M
Protocol: as §1, §2

OVCAR-5 = OVCAR-5 (Ovarian); log GI50; 48 h, sulforhodamine B, 10^-4 to 10^-8 M
Protocol: as §1, §2

NCI/ADR-RES = NCI/ADR-RES (Ovarian); log GI50; 48 h, sulforhodamine B, 10^-4 to 10^-8 M
Protocol: as §1, §2

HL-60 = HL-60 (Leukemia); log GI50; 48 h, sulforhodamine B, 10^-4 to 10^-8 M
Protocol: as §1, §2

NCI-H226 = NCI-H226 (Lung); log GI50; 48 h, sulforhodamine B, 10^-4 to 10^-8 M
Protocol: as §1, §2

Row | SMILES | Log GI (M) (M14) | Log GI (M) (NCI-H522) | Log GI (M) (CAKI-1) | Log GI (M) (SF-539) | Log GI (M) (COLO 205) | Log GI (M) (SR) | Log GI (M) (SF-295) | Log GI (M) (SNB-75) | Log GI (M) (RPMI-8226) | Log GI (M) (NCI-H322M) | Log GI (M) (HOP-62) | Log GI (M) (HOP-92) | Log GI (M) (NCI-H460) | Log GI (M) (HCT-15) | Log GI (M) (OVCAR-4) | Log GI (M) (HCC-2998) | Log GI (M) (SW-620) | Log GI (M) (MCF7) | Log GI (M) (LOX IMVI) | Log GI (M) (MOLT-4) | further results
1 | CC[C@H](C)[C@H](NC(=O)[C@H](CCCNC(=N)N)NC(=O)[C@H](Cc1c[nH]c2ccccc12)NC(=O)[C@@H](NC(=O)[C@H](CCCCN)NC(=O)[C@H](CCCCN)NC(=O)[C@@H](NC(=O)[C@@H](NC(=O)[C@@H](NC(=O)[C@H](CCCCN)NC(=O)[C@H](Cc1ccccc1)NC(=O)[C@H](CCCCN)NC(=O)[C@H](CCCCN)NC(=O)[C@H](Cc1ccccc1)NC(=O)[C@@H](NC(=O)[C@@H](N)CCCCN)[C@@H](C)CC)[C@@H](C)O)[C@@H](C)CC)[C@@H](C)CC)C(C)C)C(=O)N[C@@H](Cc1ccccc1)C(=O)NCC(=O)N[C@@H](CCCNC(=N)N)C(=O)N[C@@H](Cc1ccccc1)C(N)=O [AmphiArc2] (H-KIFKKFKTIIKKVWRIFGRF-NH2) | -5.62 M | -5.63 M | -5.71 M | -5.72 M | -5.58 M | -5.57 M | -5.69 M | -5.60 M | -5.51 M | -5.73 M | -5.62 M | -5.70 M | -5.62 M | -5.58 M | -5.67 M | -5.58 M | -5.59 M | -5.52 M | -5.53 M | -5.51 M | Log GI (M) (MDA-MB-435): -5.63 M; Log GI (M) (HT29): -5.53 M; Log GI (M) (K-562): -5.55 M; Log GI (M) (OVCAR-5): -5.68 M; Log GI (M) (NCI/ADR-RES): -5.53 M; Log GI (M) (HL-60): -5.28 M; Log GI (M) (NCI-H226): -5.59 M
2 | CC[C@H](C)[C@H](NC(=O)[C@H](CCCCN)NC(=O)[C@H](CCCCN)NC(=O)[C@@H](NC(=O)[C@@H](NC(=O)[C@@H](N)Cc1c[nH]cn1)[C@@H](C)CC)[C@@H](C)CC)C(=O)N[C@@H](CCCNC(=N)N)C(=O)N[C@H](C(=O)N[C@@H](Cc1c[nH]c2ccccc12)C(=O)N[C@@H](Cc1ccc(O)cc1)C(=O)N[C@@H](CCCNC(=N)N)C(=O)N[C@@H](CCCCN)C(=O)N[C@@H](C)C(=O)N[C@@H](Cc1c[nH]c2ccccc12)C(=O)N[C@@H](Cc1c[nH]cn1)C(=O)N[C@H](C(=O)N[C@@H](CC(C)C)C(=O)NCC(=O)N[C@@H](CCCCN)C(=O)N[C@H](C(N)=O)C(C)C)C(C)C)[C@@H](C)O [Off2] (H-HIIKKIRTWYRKAWHVLGKV-NH2) | -5.38 M | -4.96 M | -5.48 M | -5.67 M | -5.68 M | -5.15 M | -5.32 M | -4.92 M | -5.06 M | -5.30 M | -5.34 M | -5.68 M | -5.48 M | -5.37 M | -4.89 M | -5.41 M | -5.02 M | -5.69 M | -4.66 M | -4.85 M | Log GI (M) (MDA-MB-435): -5.29 M; Log GI (M) (HT29): -4.83 M; Log GI (M) (K-562): -5.18 M; Log GI (M) (OVCAR-5): -5.21 M; Log GI (M) (NCI/ADR-RES): -5.23 M; Log GI (M) (HL-60): -5.37 M; Log GI (M) (NCI-H226): -5.38 M
